The term IC50 denotes the concentration at which inhibition is half-maximal.

The text below walks through data of patent publication US20240368169A1 (priority 2021, published 2024).

The subject of assay [1] is MDA-MB-436 cells. In words: Growth inhibition assay against BRCA mutant human breast cancer MDA-MB-436 cell line (CCK-8, 7 days). The class given is cell-based.
Assay [2] addresses recombinant poly(ADP-ribose) polymerase 2 (PARP2) (Homo sapiens, UniProt Q9UGN5). Description: biochemical. Conditions: inhibition of PARP2 enzyme activity, chemiluminescence.
Assay [3] has as its target recombinant poly(ADP-ribose) polymerase 1 (PARP1) (Homo sapiens, UniProt P09874). In words: biochemical. Conditions: inhibition of PARP1 enzyme activity, chemiluminescence.

Sequence of recombinant poly(ADP-ribose) polymerase 2 (PARP2) (Q9UGN5 whole entry): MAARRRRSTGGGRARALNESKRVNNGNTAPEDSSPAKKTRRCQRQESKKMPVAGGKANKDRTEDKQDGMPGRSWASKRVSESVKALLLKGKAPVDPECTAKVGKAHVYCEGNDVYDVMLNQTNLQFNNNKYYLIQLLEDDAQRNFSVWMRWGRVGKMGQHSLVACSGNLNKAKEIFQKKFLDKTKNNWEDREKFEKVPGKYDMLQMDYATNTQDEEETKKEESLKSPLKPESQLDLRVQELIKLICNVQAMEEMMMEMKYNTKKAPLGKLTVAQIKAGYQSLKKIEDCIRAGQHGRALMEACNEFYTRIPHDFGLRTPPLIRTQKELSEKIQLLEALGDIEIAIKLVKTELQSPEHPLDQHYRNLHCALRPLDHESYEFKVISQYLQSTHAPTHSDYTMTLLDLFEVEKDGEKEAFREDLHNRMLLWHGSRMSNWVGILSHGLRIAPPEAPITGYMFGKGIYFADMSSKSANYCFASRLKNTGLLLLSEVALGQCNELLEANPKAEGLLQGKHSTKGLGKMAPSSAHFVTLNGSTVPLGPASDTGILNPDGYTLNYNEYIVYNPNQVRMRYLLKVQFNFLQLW
Sequence of recombinant poly(ADP-ribose) polymerase 1 (PARP1) (P09874 whole entry): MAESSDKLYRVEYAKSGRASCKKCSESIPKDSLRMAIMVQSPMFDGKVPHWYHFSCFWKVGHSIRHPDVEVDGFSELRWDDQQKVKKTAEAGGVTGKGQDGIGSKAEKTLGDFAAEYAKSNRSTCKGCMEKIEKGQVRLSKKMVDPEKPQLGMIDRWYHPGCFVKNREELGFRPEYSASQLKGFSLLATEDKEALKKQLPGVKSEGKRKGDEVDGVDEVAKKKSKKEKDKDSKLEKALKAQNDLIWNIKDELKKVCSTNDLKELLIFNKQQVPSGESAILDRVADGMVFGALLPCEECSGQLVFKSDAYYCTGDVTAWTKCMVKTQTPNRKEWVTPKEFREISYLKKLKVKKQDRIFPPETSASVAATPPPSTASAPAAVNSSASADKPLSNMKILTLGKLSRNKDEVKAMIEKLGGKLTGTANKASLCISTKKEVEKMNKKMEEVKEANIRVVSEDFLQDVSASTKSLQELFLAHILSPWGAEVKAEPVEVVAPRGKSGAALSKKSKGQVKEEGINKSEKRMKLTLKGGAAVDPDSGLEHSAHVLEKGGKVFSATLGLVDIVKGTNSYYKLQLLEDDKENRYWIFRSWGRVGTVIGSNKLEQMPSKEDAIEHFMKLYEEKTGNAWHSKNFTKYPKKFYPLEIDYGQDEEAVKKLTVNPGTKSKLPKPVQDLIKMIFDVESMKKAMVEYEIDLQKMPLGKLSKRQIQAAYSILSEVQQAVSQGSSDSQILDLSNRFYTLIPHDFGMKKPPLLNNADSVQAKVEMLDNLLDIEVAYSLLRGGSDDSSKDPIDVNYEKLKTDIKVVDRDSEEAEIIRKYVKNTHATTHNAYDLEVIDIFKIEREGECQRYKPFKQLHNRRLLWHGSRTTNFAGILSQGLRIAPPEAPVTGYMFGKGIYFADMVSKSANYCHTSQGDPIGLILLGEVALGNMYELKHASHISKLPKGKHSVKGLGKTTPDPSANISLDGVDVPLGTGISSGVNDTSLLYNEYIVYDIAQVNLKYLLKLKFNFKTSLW

For `CNC(=O)c1ccc(N2CCN(Cc3ccc4c5c(c(=O)[nH]c4c3)COC5)CC2)c(F)n1` [Example 2, 7-((4-(2-fluoro-6-(methylcarbamoyl)pyridin-3-yl)piperazin-1-yl)methyl)-3,5-dihydrofuro[3,4-c]quinolin-4(1H)-one], the IC50 in assay [1] was found to be 2.65 nM; in assay [2] it was 128 nM; in assay [3], 1.91 nM.

`CNC(=O)c1ccc(N2CCN(Cc3ccc4c5c(c(=O)[nH]c4c3)COC5)CC2)c(Cl)n1` [Example 3, 7-((4-(2-chloro-6-(methylcarbamoyl)pyridin-3-yl)piperazin-1-yl)methyl)-3,5-dihydrofuro[3,4-c]quinolin-4(1H)-one]: the figures for the IC50 in assay [1], in assay [2] and in assay [3] were 5.01 nM, 467 nM and 1.33 nM, respectively.

For `CNC(=O)c1ccc(N2CCN(Cc3ccc4c5c(c(=O)[nH]c4c3)COC5)CC2)c(C)n1` [Example 4, 7-((4-(2-methyl-6-(methylcarbamoyl)pyridin-3-yl)piperazin-1-yl)methyl)-3,5-dihydrofuro[3,4-c]quinolin-4(1H)-one], the 50% inhibitory concentration (IC50) in assay [1] worked out at 4.22 nM; in assay [2], 188 nM; in assay [3], 1.59 nM.

As for `CCNC(=O)c1ccc(N2CCN(Cc3ccc4c5c(c(=O)[nH]c4c3)COC5)CC2)c(Cl)n1` [Example 6, 7-((4-(2-chloro-6-(ethylcarbamoyl)pyridin-3-yl)piperazin-1-yl)methyl)-3,5-dihydrofuro[3,4-c]quinolin-4(1H)-one], the IC50 in assay [1] was 17.7 nM; in assay [3], 1.86 nM.

Turning to `CCNC(=O)c1ccc(N2CCN(Cc3ccc4c5c(c(=O)[nH]c4c3)COC5)CC2)c(C)n1` [Example 7, 7-((4-(2-methyl-6-(ethylcarbamoyl)pyridin-3-yl)piperazin-1-yl)methyl)-3,5-dihydrofuro[3,4-c]quinolin-4(1H)-one], the values for the IC50 in assay [1] and in assay [3] were 4.36 nM and 1.9 nM, respectively.

Turning to `CNC(=O)c1ccc(N2CCN(Cc3ccc4c5c(c(=O)[nH]c4c3)CCC5)CC2)c(Cl)n1` [Example 16, 7-((4-(2-chloro-6-(methylcarbamoyl)pyridin-3-yl)piperazin-1-yl)methyl)-1,2,3,5-tetrahydro-4H-cyclopenta[c]quinolin-4-one], the IC50 in assay [1] amounted to 1.71 nM; in assay [3], 1.99 nM.

For the compound `CNC(=O)c1ccc(N2CCN(Cc3ccc4c(c3)[nH]c(=O)c3cccn34)CC2)c(C)n1` [Example 24, 7-((4-(2-methyl-6-(methylcarbamoyl)pyridin-3-yl)piperazin-1-yl)methyl)pyrrolo[1,2-a]quinoxalin-4(5H)-one], the IC50 worked out at 0.78 nM in assay [1], 31.5 nM in assay [2] and 0.83 nM in assay [3].

On to `CNC(=O)c1ccc(N2CCN(Cc3ccc4c(c3)[nH]c(=O)c3nccn34)CC2)c(C)n1` [Example 25, 7-((4-(2-methyl-6-(methylcarbamoyl)pyridin-3-yl)piperazin-1-yl)methyl)imidazo[1,2-a]quinoxalin-4(5H)-one], for which the values for the IC50 in assay [1] and in assay [3] were 44.9 nM and 1.93 nM, respectively.

`CNC(=O)c1ccc(N2CCN(Cc3ccc4c(c3)[nH]c(=O)c3ccnn34)CC2)c(C)n1` [Example 28, 7-((4-(2-methyl-6-(methylcarbamoyl)pyridin-3-yl)piperazin-1-yl)methyl)pyrazolo[1,5-a]quinoxalin-4(5H)-one]: the IC50 was 0.98 nM in assay [1], more than 3000 nM in assay [2] and 0.77 nM in assay [3].

For the compound `CNC(=O)c1ccc(N2CCN(Cc3ccc4c(c3)[nH]c(=O)n3cncc43)CC2)c(C)n1` [Example 30, 8-((4-(2-methyl-6-(methylcarbamoyl)pyridin-3-yl)piperazin-1-yl)methyl)imidazo[1,5-c]quinazolin-5(6H)-one], the IC50 in assay [2] was found to be 2590 nM; in assay [3], 1.54 nM.

As to `CNC(=O)c1ccc(N2CCN(Cc3cc(F)c4c(c3)[nH]c(=O)n3ccnc43)CC2)c(F)n1` [Example 53, 8-((4-(2-fluoro-6-(methylcarbamoyl)pyridin-3-yl)piperazin-1-yl)methyl)-10-fluoroimidazo[1,2-c]quinazolin-5(6H)-one], the IC50 amounted to 1950 nM in assay [2] and 2.34 nM in assay [3].

As for `CNC(=O)c1ccc(N2CCN(Cc3ccc4c(c3)[nH]c(=O)c3cscc34)CC2)c(C)n1` [Example 83, 7-((4-(2-methyl-6-(methylcarbamoyl)pyridin-3-yl)piperazin-1-yl)methyl)thieno[3,4-c]quinolin-4(5H)-one], the values for the IC50 in assay [2] and in assay [3] were 18.3 nM and 1.08 nM, respectively.

As to `CNC(=O)c1ccc(N2CCN(Cc3ccc4c(c3)[nH]c(=O)c3sccc34)CC2)c(C)n1` [Example 84, 7-((4-(2-methyl-6-(methylcarbamoyl)pyridin-3-yl)piperazin-1-yl)methyl)thieno[2,3-c]quinolin-4(5H)-one], the IC50 was 10.1 nM in assay [2] and 0.77 nM in assay [3].

Turning to `CNC(=O)c1ccc(N2CCN(Cc3ccc4c(c3)[nH]c(=O)c3ccsc34)CC2)c(C)n1` [Example 85, 7-((4-(2-methyl-6-(methylcarbamoyl)pyridin-3-yl)piperazin-1-yl)methyl)thieno[3,2-c]quinolin-4(5H)-one], the IC50 is 78 nM in assay [2] and 1.52 nM in assay [3].

With `CNC(=O)c1ccc(N2CCN(Cc3cc(F)c4c(c3)[nH]c(=O)c3cscc34)CC2)c(C)n1` [Example 86, 7-((4-(2-methyl-6-(methylcarbamoyl)pyridin-3-yl)piperazin-1-yl)methyl)-9-fluorothieno[3,4-c]quinolin-4(5H)-one], the values for the IC50 in assay [2] and in assay [3] were 13.3 nM and 0.66 nM, respectively.

As to `CNC(=O)c1ccc(N2CCN(Cc3ccc4c(c3)[nH]c(=O)c3occc34)CC2)c(C)n1` [Example 104, 7-((4-(2-methyl-6-(methylcarbamoyl)pyridin-3-yl)piperazin-1-yl)methyl)furo[2,3-c]quinolin-4(5H)-one], the IC50 in assay [3] was 1.42 nM.

As for `CNC(=O)c1ccc(N2CCN(Cc3ccc4c(c3)[nH]c(=O)c3cnn(C)c34)CC2)c(C)n1` [Example 105, 7-((4-(2-methyl-6-(methylcarbamoyl)pyridin-3-yl)piperazin-1-yl)methyl)-1-methyl-1,5-dihydro-4H-pyrazolo[4,3-c]quinolin-4-one], the IC50 in assay [2] came out at 910 nM.

Regarding `CNC(=O)c1ccc(N2CCN(Cc3cc(F)c4c(c3)[nH]c(=O)c3occc34)CC2)c(F)n1` [Example 108, 7-((4-(2-fluoro-6-(methylcarbamoyl)pyridin-3-yl)piperazin-1-yl)methyl)-9-fluoro-furo[2,3-c]quinolin-4(5H)-one], the IC50 is 353 nM in assay [2] and 0.66 nM in assay [3].

For `CCNC(=O)c1ccc(N2CCN(Cc3ccc4c([nH]c(=O)c5ccnn54)c3F)CC2)c(F)n1` [Example 110, 7-((4-(2-fluoro-6-(ethylcarbamoyl)pyridin-3-yl)piperazin-1-yl)methyl)-6-fluoropyrazolo[1,5-a]quinoxalin-4(5H)-one], the values for the IC50 in assay [2] and in assay [3] were 965 nM and 1.95 nM, respectively.

With `O=C(NC1CC1)c1ccc(N2CCN(Cc3ccc4c([nH]c(=O)c5ccnn54)c3F)CC2)c(F)n1` [Example 111, 7-((4-(2-fluoro-6-(cyclopropylcarbamoyl)pyridin-3-yl)piperazin-1-yl)methyl)-6-fluoropyrazolo[1,5-a]quinoxalin-4(5H)-one], the IC50 was 455 nM in assay [2] and 1.27 nM in assay [3].

With `CNC(=O)c1ccc(N2CCN(Cc3ccc4c([nH]c(=O)c5cc(Cl)nn54)c3F)CC2)c(F)n1` [Example 112, 7-((4-(2-fluoro-6-(methylcarbamoyl)pyridin-3-yl)piperazin-1-yl)methyl)-6-fluoro-2-chloropyrazolo[1,5-a]quinoxalin-4(5H)-one], the IC50 in assay [2] was determined as 223 nM; in assay [3], 0.57 nM.

With `CNC(=O)c1ccc(N2CCN(Cc3ccc4c(c3)[nH]c(=O)n3nccc43)CC2)c(C)n1` [Example 118, 8-((4-(2-methyl-6-(methylcarbamoyl)pyridin-3-yl)piperazin-1-yl)methyl)pyrazolo[1,5-c]quinazolin-5(6H)-one], the IC50 in assay [1] worked out at 10.7 nM.

Consider `CNC(=O)c1ccc(N2CCN(Cc3cc(F)c4c(c3)[nH]c(=O)n3ccnc43)CC2)c(F)n1` [Example 120], for which the IC50 in assay [2] worked out at 1950 nM.

For `CNC(=O)c1ccc(N2CCN(Cc3ccc4c(c3)[nH]c(=O)c3c(C)c(C)nn34)CC2)c(F)n1` [Example 125, 7-((4-(2-fluoro-6-(methylcarbamoyl)pyridin-3-yl)piperazin-1-yl)methyl)-2,3-dimethylpyrazolo[1,5-a]quinoxalin-4(5H)-one], the IC50 in assay [2] came to 3.7 nM; in assay [3], 1.05 nM.

As for `CNC(=O)c1ccc(N2CCN(Cc3cc(F)c4c(c3)[nH]c(=O)c3c(Cl)cnn34)CC2)c(C)n1` [Example 127, 7-((4-(2-methyl-6-(methylcarbamoyl)pyridin-3-yl)piperazin-1-yl)methyl)-3-chloro-9-fluoropyrazolo[1,5-a]quinoxalin-4(5H)-one], the IC50 stood at 83 nM in assay [2] and 0.85 nM in assay [3].

On to `CNC(=O)c1ccc(N2CCN(Cc3ccc4c([nH]c(=O)c5ccnn54)c3C)CC2)c(C)n1` [Example 129, 7-((4-(2-methyl-6-(methylcarbamoyl)pyridin-3-yl)piperazin-1-yl)methyl)-6-methylpyrazolo[1,5-a]quinoxalin-4(5H)-one], for which the IC50 was found to be 369 nM in assay [2] and 1.48 nM in assay [3].

As to `CNC(=O)c1ccc(N2CCN(Cc3cc(F)c4c(c3)[nH]c(=O)n3cccc43)CC2)c(C)n1` [Example 131, 8-((4-(2-methyl-6-(methylcarbamoyl)pyridin-3-yl)piperazin-1-yl)methyl)-10-fluoropyrrolo[1,2-c]quinazolin-5(6H)-one], the IC50 in assay [2] stood at 111 nM; in assay [3], 0.78 nM.

For the compound `CNC(=O)c1ccc(N2CCN(Cc3ccc4c([nH]c(=O)c5ccnn54)c3C)CC2)c(F)n1` [Example 133, 7-((4-(2-fluoro-6-(methylcarbamoyl)pyridin-3-yl)piperazin-1-yl)methyl)-6-methylpyrazolo[1,5-a]quinoxalin-4(5H)-one], the IC50 in assay [2] came to 222 nM; in assay [3] it was 1.5 nM.
